Data from patent US20250018030A1, “PHARMACEUTICAL COMPOSITION FOR PROMOTING CANCER IMMUNOTHERAPY AND METHOD FOR PROMOTING CANCER IMMUNOTHERAPY” (China Medical University, priority 2023, published 2025).

What was measured:
Tc1 cells [1] = experiment: Metabolic assays (Seahorse ECAR/OCR, mitochondrial pyruvate and acetyl CoA) in Tc1 cells; assay type: cell-based, Mouse
Method: The real-time extracellular acidification rate (ECAR) and oxygen consumption rate (OCR) were measured using a Seahorse XF24 analyzer (Seahorse Bioscience), within XF Glycolysis Stress and XF Cell Mito Stress Test kits used to assess glycolysis and oxidative phosphorylation. 5×10^5 cells exposed to the indicated treatments were plated in an XF-24 microplate coated with Cell-Tak (Corning) one day before the assay. ECAR and OCR were measured after metabolic manipulations by the addition of oligomycin, carbonyl cyanide-p-trifluoromethoxy-phenylhydrazone (FCCP), 2-deoxyglucose (2-DG) and rotenone/anti-mycin A (R/A). Calculations were conducted with Agilent Seahorse Wave Software for Agilent Seahorse XF analyzers (Seahorse Bioscience). For isolation of mitochondria, Tc1 cells were frozen and thawed to weaken the membranes and resuspended in Reagent A of a mitochondria isolation kit (ab110170, Abcam), before being homogenized and centrifuged at 1,000×g for 10 minutes at 4° C. Supernatant was saved (SN #1) and the pellet resuspended in Reagent B. After homogenization and centrifugation, supernatant was saved (SN #2). SN #1 and SN #2 were mixed thoroughly and centrifuged at 12,000×g for 15 minutes at 4° C. The pellet was collected in Reagent C supplemented with protease inhibitors and was used for the pyruvate and acetyl COA assays. Briefly, the mitochondrial pyruvate and acetyl CoA levels in the Tc1 cells were assessed using a commercial Pyruvate Assay Kit (ab65342, Abcam) and PicoProbe Acetyl COA Assay Kit (ab87546, Abcam) according to the manufacturer's instructions.

Tc1 cells [2] = experiment: Immunoblotting of PI3K/AKT/mTOR and STAT4 in Tc1 cells; assay type: cell-based, Mouse
Method: The protein concentrations of the total cell lysate or the extracted histones were determined by a Bradford assay (Bio-Rad Laboratories). Immunoblot analysis was performed with 10% sodium dodecyl sulfate-polyacrylamide gel electrophoresis, followed by overnight incubation with primary antibodies (1:1000 dilution) and incubation with horseradish peroxidase-conjugated secondary antibodies (1:5000 dilution; GeneTex). The polyvinylidene difluoride membranes were probed with antibodies against UCP2, pPI3K/PI3K, pAKT/AKT, pmTOR/mTOR, pSTAT1/STAT1, pSTAT4/STAT4, and H3K9Ac, which were purchased from Cell Signaling Technology or Genetex. Actin or Lamin B1 (Merck-Millipore) was used as the loading control. Signals were detected using an ECL solution (GE) and optical density quantified using ImageJ software.

Pan18 cells = experiment: Orthotopic PDAC tumor model (Pan18 cells injected in pancreas); assay type: in vivo, mice; conditions: for Survival, bioluminescent tumor growth and tumor weight: FIG. 5H-5J
Method: (§1) Monoclonal antibodies were purchased from BD Biosciences or eBioscience. For intracellular cytokine staining (ICS), cells were first restimulated by PMA/ionomycin for 5 hours in the presence of GolgiStop (BD Biosciences), followed by surface epitope staining markers before being fixed/permeabilized (BD Cytofix/Cytoperm™) and stained with antibodies targeting intracellular antigens. Cells were finally fixed with 1.5% formaldehyde for 10 minutes at room temperature and analyzed on a FACSVerse flow cytometer (BD Bioscience). Data were analyzed using FlowJo software (Tree Star Inc.).
(§2) For Pan18-subcutaneous implantation, 5×10^5 Pan18 cells were administered to wild-type (WT) or IL-17^−/− mice. Genipin (5 mg/kg, 10 mg/kg, or 30 mg/kg, i.p., every two days) was administered to Pan18-bearing mice for 3 weeks. For 3036-subcutanous implantation, 2×10^5 3036 cells were administered to WT mice. Genipin (10 mg/kg, i.p., every two days) and recombinant anti-IL-17 receptor antibody (αIL-17RA) (1 mg/kg, i.v., once a week) were administered to 3036-bearing mice for 3 weeks. Tumor volumes were evaluated every 2 days. For the orthotopic tumor modelling, mice pancreases were injected with 2×10^5 Pan18 cells and monitored for tumor growth weekly using IVIS kinetics imaging system (Caliper Life-Sciences). Genipin (10 mg/kg, i.p., every two days) or αIL-17RA (1 mg/kg, i.v., once a week) was administered 1 week after tumor implantation. Mice were sacrificed 35 days after tumor induction and tumors weighed. For spontaneous pancreatic cancer model, Cre-dependent conditional knockin mutations of KrasG12D Kras^+/LSLG12D mice (B6; 129-Kras2) were obtained from the Mouse Models of Human Cancer Consortium. Elas-CreERT; Kras^+/LSLG12D mice was generated by breeding Kras^+/LSLG12D mice with Elas-CreER mice obtained from the Level Transgenic Center. To induce the expression of Kras^+/LSLG12D in acinar cells, 5-week-old Elas-CreERT; Kras^+/LSLG12D male mice were injected with 100 μl of tamoxifen (20 mg/ml, i.p., three times per week) for 1 week. To induce chronic inflammation and tumors, 100 μl of cerulein (50 μg/ml, i.p., six times per week) (BACHEM) was given to the mice for 3 weeks. Then, the mice were injected with genipin (10 mg/kg, i.p., every two days) and αIL-17RA (1 mg/kg, i.v., once a week) until the end of the experiment, and overall survival was monitored. For genetically CD4/CD8-specific UCP2 deletion tumor modelling, we generated CD4Cre×UCP2^f/f mice by crossing loxP-UCP2-loxP mice with CD4Cre mice. CD4Cre×UCP2^f/f, WT, and loxP control mice underwent subcutaneous implantation of 2×10^5 Pan18 cells, followed by treatment with αIL-17RA (1 mg/kg, i.v., once a week) for 3 weeks. For melanoma modelling, IL-17/-and WT mice underwent subcutaneous implantation of 5×10^5 B16F10 cells, followed by treatment with genipin (10 mg/kg, i.p., every two days) for 3 weeks. For CD8 depletion tumor modelling, IL-17^−/− mice underwent subcutaneous implantation of 2×10^5 Pan18 cells, followed by treatment with genipin (10 mg/kg, i.p., every two days) and CD8 neutralizing antibody (5 mg/kg, i.v., once a week) for 3 weeks. Tumor volumes were evaluated every 3 days.

B16F10 cells = experiment: Melanoma model, B16F10 subcutaneous implantation; assay type: in vivo; conditions: IL-17−/− mice
Method: as §1, §2

[3] = genipin-treated Tc1 cells, data not shown

`COC(=O)C1=CO[C@@H](O)[C@@H]2C(CO)=CC[C@H]12` [genipin] was tested, and the “Glycolysis readout, ECAR” value (Tc1 cells [1]; genipin 12.5 μM, Seahorse XF24, FIG. 2E) was “no functional impact”, the “Oxidative phosphorylation, OCR” value (Tc1 cells [1]; genipin 12.5 μM, Seahorse XF24, FIG. 2F) was “promoted oxidative phosphorylation” and the “Acetyl CoA level in the mitochondria” value (Tc1 cells [1]; genipin-treated Tc1 cells, FIG. 2G) was “increased the level of acetyl CoA”. The Mitochondrial pyruvate (Tc1 cells [1]; genipin-treated Tc1 cells, FIG. 2H) was “parallel increase”, the “Acetyl CoA level in the cytosol” value (Tc1 cells [1]; [3]) was “increased the level of acetyl CoA” and the “Cytosolic fraction of pyruvate” value (Tc1 cells [1]; [3]) was “decreased”. The “STAT4 levels / activation” value (Tc1 cells [2]; genipin 12 hours, FIG. 2Q) was “STAT4 activation”, the “Expression of mTOR and its upstream kinases PI3K and AKT” value (Tc1 cells [2]; genipin-treated Tc1 cells) was “increased” and the “Survival, bioluminescent tumor growth and tumor weight” value (Pan18 cells; IL-17−/− mice, genipin 10 mg/kg i.p. every two days, 3 weeks) was “significant benefit”. The “Tumor-infiltrating population of Tc1 cells” value (Pan18 cells; IL-17−/− mice, genipin 10 mg/kg, FIG. 5K) was “increased”, the “Tumor-infiltrating population of Th1 cells” value (Pan18 cells; IL-17−/− mice, genipin 10 mg/kg, FIG. 5L) was “increased” and the “Tumor-infiltrating population of MDSC” value (Pan18 cells; IL-17−/− mice, genipin 10 mg/kg, FIG. 5N) was “increased”. For the same compound, the “Survival, bioluminescent tumor growth and tumor weight” value (Pan18 cells; WT mice, genipin 10 mg/kg alone (singular UCP2 targeting)) was “no impact”, the “Tumor growth (tumor volume)” value (B16F10 cells; genipin 10 mg/kg i.p. every two days, 3 weeks, FIG. 7B) was “additional effect on the inhibition of tumor growth” and the “Population of Tc1 cells” value (B16F10 cells; genipin 10 mg/kg, FIG. 7C) was “increased the expansion of Tc1 cells”. The “Population of Th1 cells” value (B16F10 cells; genipin 10 mg/kg, FIG. 7D) was “not significantly impacting”, the “Population of Treg cells” value (B16F10 cells; genipin 10 mg/kg, FIG. 7E) was “not significantly impacting” and the “Prevalence of MDSC” value (B16F10 cells; genipin 10 mg/kg, FIG. 7F) was “decreasing prevalence of MDSC”.
